Oligonucleotides are written 5' to 3', each unit as a sugar letter and its base; * is a phosphorothioate linkage, no mark a phosphodiester; rarer units and linkages stand in square brackets, end groups in braces. Plain capitals give the bases only. r = 2'-OH (RNA)
How the values were obtained:
Flt3L-DC = Flt3L-DC activation assay (cytokines in supernatant by sandwich ELISA); format: cell-based, mouse; conditions: for IFNα induction by Flt3L-DC compared with polyUs-21 (reference TLR7 ligand): comparison in words; for ability to stimulate TLR7: summary statement on oligonucleotides of Table 1; for levels of IFNα compared with polyUs-21: at higher concentrations; for IFNα production: phosphodiester RNA of undefined length, previous experiments; for fold less potent in inducing IFNα by Flt3L-DC than the 21-mer (polyUo-21): phosphodiester polyU RNA, shift in the dose response
Method: Flt3L-DC were generated from bone marrow cell suspensions in RPMI 1640 medium containing 10% fetal calf serum, 2 mM glutamine, 100 units/ml penicillin, 100 μg/ml streptomycin, 50 μM 2-mercaptoethanol and 50 ng/ml murine Flt3L (R&D systems) and were used at day 10 or 11 of cultures.
For stimulation with oligonucleotides, 2×10^5 Flt3L-DC were seeded in triplicate in 96-well-plates. Oligonucleotides were added and cells were cultured overnight in a final volume of 200 μl. Controls contained medium alone, 0.5 μg/ml CpG 1668, 100 mM loxoribine or 1 μM R848.
For stimulation with oligonucleotides other than CpG 1668, different doses of each test oligonucleotides were diluted in 150 mM NaCl solution and mixed with an equal volume of 150 mM NaCl solution+/−polytheylenimine (PEI; 3 μl/ml PEI were used irrespective of the RNA dose). After 15 min incubation at room temperature, oligonucleotide/PEI complexes were added to cells. Supernatants were collected after 18-20 hr of culture and levels of IFNα, IL-6 and IL-12 p40 were determined by sandwich ELISA.

[1] = system: human plasmacytoid DC (pDC); test: Human pDC activation assay (IFNα and IL-6 in supernatant by sandwich ELISA); format: cell-based; conditions: PEI complexes, different doses of polyUs 21-mer, polyAs 21-mer 1 μM, overnight culture
Method: Human pDC activation assays. R848 and RNA9.2DR complexed to LyoVec were from Invivogen. RNA oligonucleotides were purchased from Sigma Proligo. Human PMBCs were purified from normal human peripheral blood by Ficoll-Hypaque centrifugation. BDCA4^+ plasmacytoid DC were purified from total PBMC by positive selection using CD304^+ Microbeads and MiniMacs from MiltenyiBiotec. Oligonucleotides/PEI complexes, prepared as described above, were added to 1-2×10^5 pDC seeded in duplicate in 96-well-plates. Cells were cultured overnight in a final volume of 200 μl, supernatants were collected after 18-20 hr of culture and levels of IFNα and IL-6 were determined by sandwich ELISA.

[2] = oligonucleotide/PEI complexes, C57BL/6 Flt3L-DC, overnight culture, result in words

Row | Molecule | ability to stimulate TLR7 (Flt3L-DC) | IFNα induction by Flt3L-DC (Flt3L-DC; [2]) | other results
1 | C=CCn1c(=O)n([C@@H]2O[C@H](CO)[C@@H](O)[C@H]2O)c2nc(N)[nH]c(=O)c21 [loxoribine, reference compound] | – | – | IL-6 induction by Flt3L-DC (Flt3L-DC; ligands at concentrations of maximum cytokine induction, compared with polyUs-21/PEI): better inducers of IL-6 than polyUs-21
2 | SSD8: phosphorothioate RNA 21-mer CCUUUCCUUUCUUUCCUUUCC, 4x triple U, SEQ ID NO 12 (rC*rC*rU*rU*rU*rC*rC*rU*rU*rU*rC*rU*rU*rU*rC*rC*rU*rU*rU*rC*rC) | capable of stimulating TLR7 | – | IFNα induction compared among SSD8, SSD9 and SSD10 (four, three or two uridine triplets) (Flt3L-DC; PEI complexes): Differences between oligonucleotides SSD8 and SSD9 were only marginal; potency in inducing IFNα, no uridine at the ends (SSD8, SSD14) compared with uridine at the ends (SSD13, SSD15) (Flt3L-DC; PEI complexes): slightly more potent in inducing IFNα; shift of the dose response, no uridine at the ends (SSD8, SSD14) compared with uridine at the ends (SSD13, SSD15) (Flt3L-DC; PEI complexes): nearly half a logarithmic scale; IFNα induction by Flt3L-DC compared with polyUs-21 (reference TLR7 ligand) (Flt3L-DC; PEI complexes): lower levels of IFNα than the 21-mer oligonucleotide consisting entirely of uridine nucleotides
3 | SSD9: phosphorothioate RNA 21-mer CCCCCCCUUUCUUUCCUUUCC, 3x triple U, SEQ ID NO 13 (rC*rC*rC*rC*rC*rC*rC*rU*rU*rU*rC*rU*rU*rU*rC*rC*rU*rU*rU*rC*rC) | capable of stimulating TLR7 | – | IFNα induction compared among SSD8, SSD9 and SSD10 (four, three or two uridine triplets) (Flt3L-DC; PEI complexes): Differences between oligonucleotides SSD8 and SSD9 were only marginal; IFNα induction by Flt3L-DC compared with polyUs-21 (reference TLR7 ligand) (Flt3L-DC; PEI complexes): lower levels of IFNα than the 21-mer oligonucleotide consisting entirely of uridine nucleotides
4 | SSD10: phosphorothioate RNA 21-mer CCCCCCCUUUCUUUCCCCCCC, 2x triple U, SEQ ID NO 14 (rC*rC*rC*rC*rC*rC*rC*rU*rU*rU*rC*rU*rU*rU*rC*rC*rC*rC*rC*rC*rC) | capable of stimulating TLR7 | – | IFNα induction compared among SSD8, SSD9 and SSD10 (four, three or two uridine triplets) (Flt3L-DC; PEI complexes): slightly reduced; IFNα induction by Flt3L-DC compared with polyUs-21 (reference TLR7 ligand) (Flt3L-DC; PEI complexes): lower levels of IFNα than the 21-mer oligonucleotide consisting entirely of uridine nucleotides
5 | SSD13: phosphorothioate RNA 21-mer UUUCCCUUUCCCUUUCCCUUU, 4x triple U, SEQ ID NO 15 (rU*rU*rU*rC*rC*rC*rU*rU*rU*rC*rC*rC*rU*rU*rU*rC*rC*rC*rU*rU*rU) | capable of stimulating TLR7 | – | –
6 | SSD14: phosphorothioate RNA 21-mer CCUUCCUUCCUUCCUUCCUUC, 5x double U, no U at the end, SEQ ID NO 16 (rC*rC*rU*rU*rC*rC*rU*rU*rC*rC*rU*rU*rC*rC*rU*rU*rC*rC*rU*rU*rC) | capable of stimulating TLR7 | – | potency in inducing IFNα, no uridine at the ends (SSD8, SSD14) compared with uridine at the ends (SSD13, SSD15) (Flt3L-DC; PEI complexes): slightly more potent in inducing IFNα; shift of the dose response, no uridine at the ends (SSD8, SSD14) compared with uridine at the ends (SSD13, SSD15) (Flt3L-DC; PEI complexes): nearly half a logarithmic scale
7 | SSD15: phosphorothioate RNA 21-mer UUCCCUUCCCUUCCUUCCCUU, 5x double U with U at the end, SEQ ID NO 17 (rU*rU*rC*rC*rC*rU*rU*rC*rC*rC*rU*rU*rC*rC*rU*rU*rC*rC*rC*rU*rU) | capable of stimulating TLR7 | – | –
8 | SSD21: phosphorothioate RNA 21-mer CCCCCUUUCUUUCUUUCCCCC, 3x triple U, one C apart, SEQ ID NO 18 (rC*rC*rC*rC*rC*rU*rU*rU*rC*rU*rU*rU*rC*rU*rU*rU*rC*rC*rC*rC*rC) | capable of stimulating TLR7 | – | IFNα levels compared within the group SSD21-SSD25 (three uridine triplets, one to five cytosines apart) (Flt3L-DC; PEI complexes): induced the highest levels of IFNα in this group of oligonucleotides; IFNα induction by Flt3L-DC compared with polyUs-21 (reference TLR7 ligand) (Flt3L-DC; PEI complexes): less efficient in IFNα induction than polyUs-21
9 | SSD22: phosphorothioate RNA 21-mer CCCCUUUCCUUUCCUUUCCCC, 3x triple U, two C apart, SEQ ID NO 19 (rC*rC*rC*rC*rU*rU*rU*rC*rC*rU*rU*rU*rC*rC*rU*rU*rU*rC*rC*rC*rC) | capable of stimulating TLR7 | – | –
10 | SSD23: phosphorothioate RNA 21-mer CCCUUUCCCUUUCCCUUUCCC, 3x triple U, three C apart, SEQ ID NO 20 (rC*rC*rC*rU*rU*rU*rC*rC*rC*rU*rU*rU*rC*rC*rC*rU*rU*rU*rC*rC*rC) | capable of stimulating TLR7 | – | –
11 | SSD24: phosphorothioate RNA 21-mer CCUUUCCCCUUUCCCCUUUCC, 3x triple U, four C apart, SEQ ID NO 21 (rC*rC*rU*rU*rU*rC*rC*rC*rC*rU*rU*rU*rC*rC*rC*rC*rU*rU*rU*rC*rC) | capable of stimulating TLR7 | – | –
12 | SSD25: phosphorothioate RNA 21-mer CUUUCCCCCUUUCCCCCUUUC, 3x triple U, five C apart, SEQ ID NO 22 (rC*rU*rU*rU*rC*rC*rC*rC*rC*rU*rU*rU*rC*rC*rC*rC*rC*rU*rU*rU*rC) | – | hardly any measurable levels of IFNα were induced | –
13 | SSD27: phosphorothioate RNA 21-mer CUCUCUCUCUCUCUCUCUCUC, 10x single U, one C apart, SEQ ID NO 23 (rC*rU*rC*rU*rC*rU*rC*rU*rC*rU*rC*rU*rC*rU*rC*rU*rC*rU*rC*rU*rC) | – | comparably poor in inducing IFNα | –
14 | SSD28: phosphorothioate RNA 21-mer CCCCUUCUUCUUCUUCUUCCC, 5x double U, one C apart, SEQ ID NO 24 (rC*rC*rC*rC*rU*rU*rC*rU*rU*rC*rU*rU*rC*rU*rU*rC*rU*rU*rC*rC*rC) | capable of stimulating TLR7 | very potent in inducing IFNα | levels of IFNα compared with polyUs-21 (Flt3L-DC; PEI complexes): comparable to the polyUs-21 oligonucleotide
15 | SSD29: phosphorothioate RNA 21-mer CCCCCCUUUUUUUUUUCCCCC, 10x U in a string, SEQ ID NO 25 (rC*rC*rC*rC*rC*rC*rU*rU*rU*rU*rU*rU*rU*rU*rU*rU*rC*rC*rC*rC*rC) | capable of stimulating TLR7 | very potent in inducing IFNα | levels of IFNα compared with polyUs-21 (Flt3L-DC; PEI complexes): comparable to the polyUs-21 oligonucleotide
16 | polyA [reference compound] | – | – | IFNα production (Flt3L-DC): neither polyA nor polyC phosphodiester RNA of undefined length triggered IFNα production
17 | polyAs-21: polyA RNA 21-mer, phosphorothioate bonds, SEQ ID NO 26 (rA*rA*rA*rA*rA*rA*rA*rA*rA*rA*rA*rA*rA*rA*rA*rA*rA*rA*rA*rA*rA) | – | failed to induce IFNα | IFN-α production by human pDC [1]: failed to induce IFNα
18 | polyC [reference compound] | – | – | IFNα production (Flt3L-DC): neither polyA nor polyC phosphodiester RNA of undefined length triggered IFNα production
19 | polyTs-21: polyT RNA 21-mer, phosphorothioate bonds, SEQ ID NO 28 (TTTTTTTTTTTTTTTTTTTTT; RNA, all phosphorothioate, T or U not given here; further chemistry not fully specified) | – | unable to induce measurable levels of IFNα at any of the tested concentrations | –
20 | polyUo-10: polyU RNA 10-mer, phosphodiester bonds, SEQ ID NO 4 (UUUUUUUUUU; unmodified RNA) | capable of stimulating TLR7 | – | fold less potent in inducing IFNα by Flt3L-DC than the 21-mer (polyUo-21) (Flt3L-DC; PEI complexes): approximately 20 ×
21 | polyUo-15: polyU RNA 15-mer, phosphodiester bonds, SEQ ID NO 3 (UUUUUUUUUUUUUUU; unmodified RNA) | capable of stimulating TLR7 | – | fold less potent in inducing IFNα by Flt3L-DC than the 21-mer (polyUo-21) (Flt3L-DC; PEI complexes): approximately 20 ×
22 | polyUo-21: polyU RNA 21-mer, phosphodiester bonds, SEQ ID NO 2 (UUUUUUUUUUUUUUUUUUUUU; unmodified RNA) | capable of stimulating TLR7 | induced IFNα by Flt3L-DC in a dose dependent manner | IFNα induction by Flt3L-DC compared with polyUs-21 (reference TLR7 ligand) (Flt3L-DC; PEI complexes): induced similar IFNα; IFNα induction by Flt3L-DC (Flt3L-DC; free oligonucleotide given to culture without PEI): failed to induce IFNα
23 | polyUs-15: polyU RNA 15-mer, phosphorothioate bonds, SEQ ID NO 6 (rU*rU*rU*rU*rU*rU*rU*rU*rU*rU*rU*rU*rU*rU*rU) | capable of stimulating TLR7 | – | IFNα induction by Flt3L-DC compared with polyUs-21 (reference TLR7 ligand) (Flt3L-DC; PEI complexes): indistinguishable from the response obtained with the 21-mer
24 | polydUo-21: polyU DNA 21-mer (dU), phosphodiester bonds, SEQ ID NO 8 (UUUUUUUUUUUUUUUUUUUUU; listed as RNA, chemistry not fully specified) | capable of stimulating TLR7 | produced IFNα | potency in inducing IFNα compared with polyUo-21 (Flt3L-DC; at higher doses, PEI complexes): even more potent; potency in stimulating an IFNα response compared with polyUo-21 (Flt3L-DC; at lower doses, PEI complexes): less potent
25 | polydUs-21: polyU DNA 21-mer (dU), phosphorothioate bonds, SEQ ID NO 9 (UUUUUUUUUUUUUUUUUUUUU; DNA, all phosphorothioate, T or U not given here) | capable of stimulating TLR7 | – | –

From patent US20090169472A1, “METHODS AND COMPOSITIONS FOR TREATING IMMUNE DISORDERS” (CANCER RESEARCH TECHNOLOGY LTD., priority 2005, published 2009)
